Laboratory results taken from patent US20040260318A1, “Anastomotic connector devices” (Angiotech International AG, priority 2003, published 2004).

Tests used:
[1] = system: Primary human smooth muscle cells; experiment: Screening assay for smooth muscle cell migration (Boyden chamber, rhPDGF-BB chemotaxis); format: cell-based; settings: 4 hours migration toward rhPDGF-BB 10 ng/mL, FIG. 8
Solubility in water = format: physicochemical
[2] = system: AP-1 transcriptional activity; experiment: IL-1 stimulated AP-1 driven CAT reporter gene activity in chondrocytes; format: cell-based; settings: transfected chondrocytes, concentration dependent, 10^−7 to 10^−5 M
stromelysin (MMP-3) mRNA = experiment: IL-1 induced MMP-3 (stromelysin) mRNA expression in chondrocytes, Northern blot
[3] = system: Chick Chorioallantoic Membrane; experiment: Chick chorioallantoic membrane (CAM) angiogenesis assay; settings: for Inhibition/n: 48 hours
[4] = system: AP-1 DNA binding activity; experiment: IL-1 induced AP-1 DNA binding activity, gel mobility shift assay; format: cell-based; settings: chondrocyte lysates, pretreated at 10^−7 to 10^−5 M for 24 hours
collagenase (MMP-1) mRNA = experiment: IL-1 induced MMP-1 (collagenase) mRNA expression in chondrocytes, Northern blot
[5] = chondrocytes pretreated for 24 hours, IL-1 induced

- IC50 [1]: 0.76 nM
- solubility in water (Solubility in water): insoluble in water
- IL-1 induced AP-1 binding activity to DNA [4]: decreased
- inhibition of collagenase mRNA expression (collagenase (MMP-1) mRNA; at 10^−5 M): complete inhibition
- levels of collagenase mRNA (collagenase (MMP-1) mRNA; [5]): significantly reduced
Structure (SMILES): CC(=O)O[C@H]1C(=O)[C@@]2(C)[C@H]([C@H](OC(=O)c3ccccc3)[C@]3(O)C[C@H](OC(=O)[C@H](O)[C@@H](NC(=O)c4ccccc4)c4ccccc4)C(C)=C1C3(C)C)[C@]1(OC(C)=O)CO[C@@H]1C[C@@H]2O [paclitaxel, 5β,20-Epoxy-1,2Alpha,4,7β,10β,13Alpha-hexahydroxytax-11-en-9-one-4,10-diacetate-2-benzoate-13-(Alpha-phenylhippurate)]
- IL-1 induced AP-1 reporter gene CAT activity [2]: reduced
- concentration inhibiting stromelysin expression in vitro (stromelysin (MMP-3) mRNA): 10^−6 M
- inhibition of stromelysin mRNA expression (stromelysin (MMP-3) mRNA; at 10^−5 M): complete inhibition
- levels of stromelysin mRNA (stromelysin (MMP-3) mRNA; [5]): significantly reduced
- Inhibition/n ([3]; 0.25 ug in methylcellulose (10 ul) disk, CAMs with positive antiangiogenesis response / n): 2/11
- Inhibition/n ([3]; 0.5 ug in methylcellulose (10 ul) disk): 6/11
- Inhibition/n ([3]; 1 ug in methylcellulose (10 ul) disk): 6/15
- Inhibition/n ([3]; 5 ug in methylcellulose (10 ul) disk): 20/27
- Inhibition/n ([3]; 10 ug in methylcellulose (10 ul) disk): 16/21
- Inhibition/n ([3]; 30 ug in methylcellulose (10 ul) disk): 31/31
- angiogenesis in the CAM ([3]; 48 hours after application): inhibited
- avascular gradient scale, maximal avascular zone ([3]; within 48 hours, depending on concentration): 3
- concentration inhibiting collagenase expression in vitro (collagenase (MMP-1) mRNA): 10^−6 M
